According to PMC5814047, “Peptidic inhibitors of insulin-degrading enzyme with potential for dermatological applications discovered via phage display” (PLoS ONE, 2018):
Like-named read-outs stand apart in the source and are kept apart here. Bridge positions count the residues as written; N and C are the ends. Ends that are not written are not given here. Peptide text beside a SMILES is read from it.

Legend:
IDE [1] = target: T1, IDE (Homo sapiens, UniProt P14735); test: biochemical; conditions: for IC50: FRET1, listed in Table 1, read-out: IC50, summary of results of the initial test; for IC50 <500 uM?: initial test at 500 uM; for Ki: substrate FRET1 5 μM, Ki from IC50 with the Cheng-Prusoff equation, read-out: Ki FRET1
T1 construct: made in house; host or cells: bacteria
T1 sequence (P14735 1-1019): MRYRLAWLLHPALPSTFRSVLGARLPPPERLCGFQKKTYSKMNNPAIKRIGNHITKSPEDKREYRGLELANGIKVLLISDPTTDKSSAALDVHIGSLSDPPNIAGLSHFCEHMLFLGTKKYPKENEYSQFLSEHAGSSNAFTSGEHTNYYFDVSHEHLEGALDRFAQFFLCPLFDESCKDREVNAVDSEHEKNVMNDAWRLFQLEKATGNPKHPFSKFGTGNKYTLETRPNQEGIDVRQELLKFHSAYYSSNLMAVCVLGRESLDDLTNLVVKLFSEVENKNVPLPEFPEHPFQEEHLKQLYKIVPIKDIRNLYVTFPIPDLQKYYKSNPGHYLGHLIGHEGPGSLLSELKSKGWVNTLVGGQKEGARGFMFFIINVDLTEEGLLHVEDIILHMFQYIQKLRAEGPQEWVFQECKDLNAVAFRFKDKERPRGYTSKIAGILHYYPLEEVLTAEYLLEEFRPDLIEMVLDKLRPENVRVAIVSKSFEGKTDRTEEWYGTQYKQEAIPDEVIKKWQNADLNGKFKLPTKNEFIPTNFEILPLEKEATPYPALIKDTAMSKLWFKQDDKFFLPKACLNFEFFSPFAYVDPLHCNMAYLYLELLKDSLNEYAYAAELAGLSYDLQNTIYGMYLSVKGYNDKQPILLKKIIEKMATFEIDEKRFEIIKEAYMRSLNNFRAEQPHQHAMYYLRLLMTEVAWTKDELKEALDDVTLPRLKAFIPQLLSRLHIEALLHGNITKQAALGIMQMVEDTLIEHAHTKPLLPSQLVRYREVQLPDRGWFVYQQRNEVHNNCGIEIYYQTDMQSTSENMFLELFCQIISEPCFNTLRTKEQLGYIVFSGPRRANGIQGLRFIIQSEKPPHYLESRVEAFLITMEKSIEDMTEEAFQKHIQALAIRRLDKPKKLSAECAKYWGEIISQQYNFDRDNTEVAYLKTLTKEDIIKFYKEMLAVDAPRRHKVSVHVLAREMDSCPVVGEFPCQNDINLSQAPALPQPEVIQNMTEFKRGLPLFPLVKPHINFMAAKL
Method: The six selected peptide sequences (C7C-1, C7C-2, 12–1, 12–2, 12–3 and 12–4) were synthesized, together with a variety of modifications, yielding a total of 25 peptides (Table 1). […] Other modifications included N-terminal acetylation and C-terminal amidation, included to mimic the charge state of the peptides when incorporated in the phage coat protein (Table 1).
IDE activity was quantified by monitoring the degradation of Mca-[…](Dnp) (FRET1, 5 μM), fluoresceinated and biotinylated amyloid ß-protein (FAßB; 500 nM) or recombinant human insulin (50 nM) in PBS supplemented with 0.05% BSA. […] In vitro activity assays incorporated recombinant human IDE (1 nM) purified from bacteria. For quantitation of insulin degradation in primary murine skin fibroblasts, cells (1 x 10^5/well) were plated in 96-well plates and maintained in DMEM supplemented with 10% fetal bovine serum (FBS), 2mM glutamine, penicillin and streptomycin. After addition of insulin (10 nM or 100 nM), samples of conditioned medium were removed daily and quickly frozen, then insulin levels were quantified in parallel by ELISA according to manufacturer’s recommendations (Crystal Chem, Downers Grove, IL, USA). Assessment of the activity of P12-3A against a variety of matrix-metalloproteases was conducted using the Matrix Metalloproteinase (MMP) Inhibitor Profiling Kit, Fluorometric RED (Enzo Life Sciences, Inc., Farmingdale, NY, USA) according to manufacturer’s recommendations using the broad-spectrum MMP inhibitor, NNGH, as a positive control.

IDE [2] = target: T1, IDE; test: biochemical; conditions: for IC50: from initial test at 10 uM using insulin (100 nM), read-out: IC50 (summary of results, listed in Table 1); for Ki: substrate recombinant human insulin 50 nM, Ki from IC50 with the Cheng-Prusoff equation
Description: The six selected peptide sequences (C7C-1, C7C-2, 12–1, 12–2, 12–3 and 12–4) were synthesized, together with a variety of modifications, yielding a total of 25 peptides (Table 1). For the 12-mer peptides, we synthesized variants of the parent peptides truncated at one or both termini, to test whether the entire sequence was necessary or not, in the hope that shorter, and thus less expensive, sequences might be effective. Other modifications included N-terminal acetylation and C-terminal amidation, included to mimic the charge state of the peptides when incorporated in the phage coat protein (Table 1). To assess the extent to which these peptide sequences inhibit IDE, we quantified their potency in protease activity assays using recombinant human IDE and two different substrates: FRET1, a fluorogenic peptide, and recombinant human insulin.
IDE activity was quantified by monitoring the degradation of Mca-[…](Dnp) (FRET1, 5 μM), fluoresceinated and biotinylated amyloid ß-protein (FAßB; 500 nM) or recombinant human insulin (50 nM) in PBS supplemented with 0.05% BSA. FRET1 degradation was measured by changes in fluorescence (λex = 340 nm, λem = 420 nm); FAßB degradation was monitored by fluorescence polarization (λex = 488 nm, λem = 525 nm), as described; and insulin degradation was quantified by ELISA. In vitro activity assays incorporated recombinant human IDE (1 nM) purified from bacteria. For quantitation of insulin degradation in primary murine skin fibroblasts, cells (1 x 10^5/well) were plated in 96-well plates and maintained in DMEM supplemented with 10% fetal bovine serum (FBS), 2mM glutamine, penicillin and streptomycin. After addition of insulin (10 nM or 100 nM), samples of conditioned medium were removed daily and quickly frozen, then insulin levels were quantified in parallel by ELISA according to manufacturer’s recommendations (Crystal Chem, Downers Grove, IL, USA). Assessment of the activity of P12-3A against a variety of matrix-metalloproteases was conducted using the Matrix Metalloproteinase (MMP) Inhibitor Profiling Kit, Fluorometric RED (Enzo Life Sciences, Inc., Farmingdale, NY, USA) according to manufacturer’s recommendations using the broad-spectrum MMP inhibitor, NNGH, as a positive control.

[3] = initial test, percent of initial velocity relative to DMSO-only controls, individual replicates, read-out: Percent activity at 500 uM, Replicate 1-4
[4] = judged as IC50 <100 uM?, individual replicates, read-out: Percent activity at 500 uM, Replicate 1-4
[5] = initial test, percent of initial velocity relative to DMSO-only controls, N 4, read-out: Percent activity at 500 uM, Mean
[6] = judged as IC50 <100 uM?, N 4, read-out: Percent activity at 500 uM, Mean

Row | Compound | IC50 (IDE [1]) | IC50 <500 uM? (IDE [1]) | remaining activity at 500 µM (IDE [1]; [3]) | remaining activity at 500 µM (IDE [1]; [4]) | Ki (IDE [1]) | IC50 (IDE [2]) | Ki (IDE [2]) | remaining activity at 500 µM (IDE [1]; [5]) | remaining activity at 500 µM (IDE [1]; [6]) | IC50 <10 uM? (IDE [2]; initial test at 10 uM using insulin (100 nM)) | remaining activity at 0.016 µM (IDE [2]; insulin ELISA, Cmpd 0.016 uM, Runs 1-3, read-out: Percent Activity (normalized source data)) | remaining activity at 0.08 µM (IDE [2]; insulin ELISA, Cmpd 0.08 uM, Runs 1-3, read-out: Percent Activity (normalized source data)) | remaining activity at 0.4 µM (IDE [2]; insulin ELISA, Cmpd 0.4 uM, Runs 1-3, read-out: Percent Activity (normalized source data)) | remaining activity at 2 µM (IDE [2]; insulin ELISA, Cmpd 2 uM, Runs 1-3, read-out: Percent Activity (normalized source data)) | remaining activity at 10 µM (IDE [2]; insulin ELISA, Cmpd 10 uM, Runs 1-3, read-out: Percent Activity (normalized source data))
1 | LNFPMPSRPHSS-NH2 [P12-2A] | > 100 µM | YES | 31.8% | 58.5% | > 100 µM | > 10 µM | > 10 µM | – | – | – | – | – | – | – | –
2 | Ac-MPSRPHSS [P12-2C] | > 500 µM | – | – | 72.7% | > 500 µM | > 10 µM | > 10 µM | – | – | – | – | – | – | – | –
3 | CC[C@H](C)[C@@H]1NC(=O)[C@H](CO)NC(=O)[C@H](Cc2c[nH]c3ccccc23)NC(=O)[C@H](Cc2c[nH]c3ccccc23)NC(=O)[C@H](CO)NC(=O)[C@@H](NC(=O)[C@H](C)N)CSSC[C@@H](C(=O)NCC(N)=O)NC(=O)[C@H](CC(C)C)NC(=O)[C@H](Cc2c[nH]cn2)NC1=O [C7C-1A] (H-ACSWWSIHLCG-NH2; disulfide 2-10 (inferred)) | – | YES | 25.1% | 56.6% | – | – | – | 22.5% | 59.5% | – | – | – | – | – | –
4 | Ac-FPMPSRPH-NH2 [P12-2D] | > 500 µM | – | – | 88.8% | > 500 µM | > 10 µM | > 10 µM | – | – | – | – | – | – | – | –
5 | CC[C@H](C)[C@@H]1NC(=O)[C@H](CO)NC(=O)[C@H](Cc2c[nH]c3ccccc23)NC(=O)[C@H](Cc2c[nH]c3ccccc23)NC(=O)[C@H](CO)NC(=O)[C@@H](NC(=O)[C@H](C)N)CSSC[C@@H](C(=O)NCC(=O)O)NC(=O)[C@H](CC(C)C)NC(=O)[C@H](Cc2c[nH]cn2)NC1=O [C7C-1] (H-ACSWWSIHLCG-OH; disulfide 2-10 (inferred)) | – | YES | – | 52% | – | – | – | 11.4% | 44.2% | YES | 75% | 93.7% | 66.1% | 73.9% | 51.8%
6 | LNFPMPSRPHSS [P12-2] | > 100 µM | YES | – | 59.9% | > 100 µM | > 10 µM | > 10 µM | – | – | – | – | – | – | – | –
7 | Ac-SGKFFQRF [P12-4C] | > 500 µM | – | 59.7% | 77.6% | ≥ 500 µM | > 10 µM | ≥ 10 µM | – | – | – | – | – | – | – | –
8 | CC[C@H](C)[C@@H]1NC(=O)[C@H](CO)NC(=O)[C@H](Cc2c[nH]c3ccccc23)NC(=O)[C@H](Cc2c[nH]c3ccccc23)NC(=O)[C@H](CO)NC(=O)[C@@H](NC(=O)[C@H](C)N)CSSC[C@@H](C(=O)NCC(=O)NCC(=O)NCC(=O)O)NC(=O)[C@H](CC(C)C)NC(=O)[C@H](Cc2c[nH]cn2)NC1=O [C7C-1B] (H-ACSWWSIHLCGGG-OH; disulfide 2-10 (inferred)) | – | YES | 30.3% | 63.2% | – | – | – | 30.4% | 56.8% | – | – | – | – | – | –
9 | WSPISGKF-NH2 [P12-4B] | > 500 µM | – | 76.6% | 86.6% | ≥ 500 µM | > 10 µM | ≥ 10 µM | – | – | – | – | – | – | – | –
10 | CC(C)C[C@@H]1NC(=O)[C@H](Cc2c[nH]cn2)NC(=O)CNC(=O)[C@H](C)NC(=O)[C@H](CC(N)=O)NC(=O)[C@@H](NC(=O)[C@H](C)N)CSSC[C@@H](C(=O)NCC(N)=O)NC(=O)[C@H](CCC(N)=O)NC(=O)[C@H](CO)NC1=O [C7C-2A] (H-ACNAGHLSQCG-NH2; disulfide 2-10 (inferred)) | – | – | – | 92.5% | – | – | – | 94.1% | 92.7% | – | – | – | – | – | –
11 | Ac-PISGKFFQ-NH2 [P12-4D] | > 500 µM | – | 74.3% | 91.1% | ≥ 500 µM | > 10 µM | ≥ 10 µM | – | – | – | – | – | – | – | –
12 | LNFPMPSR-NH2 [P12-2B] | > 500 µM | – | 81.3% | – | > 500 µM | > 10 µM | > 10 µM | – | – | – | – | – | – | – | –
13 | CC(C)C[C@@H]1NC(=O)[C@H](Cc2c[nH]cn2)NC(=O)CNC(=O)[C@H](C)NC(=O)[C@H](CC(N)=O)NC(=O)[C@@H](NC(=O)[C@H](C)N)CSSC[C@@H](C(=O)NCC(=O)O)NC(=O)[C@H](CCC(N)=O)NC(=O)[C@H](CO)NC1=O [C7C-2] (H-ACNAGHLSQCG-OH; disulfide 2-10 (inferred)) | – | – | 48.4% | 76.4% | – | – | – | 54% | 72.8% | – | – | – | – | – | –
